One data set concerns the target T1, rat sucrase (Rattus norvegicus, UniProt P23739).
T1 construct: a brush border membrane enzyme solution of a rat small intestine was prepared from the small intestines; from tissue; host or cells: small intestine brush border membrane, male Wistar rats
Put plainly: Inhibitory activity against rat sucrase (brush border membrane enzyme of rat small intestine, glucose liberated at 492 nm). In kind it is biochemical, rat (Wistar strain). As to conditions: pH 6.2, 37°, 20 minutes; substrate sucrose; read-out: concentration required to inhibit the activity of rat sucrase by 50% (IC50) (converted). As to the method:
Inhibitory activity of 2-amino-4-(hydroxymethyl)-3a-5,6,6a-tetrahydro-4H-cyclopent[d]oxazole-4,5,6-triol [compound (II)] against rat sucrase
According to the method of M. Kessler et al. Biochimica et Biophysica Acta, 506, 136-154(1978)], a brush border membrane enzyme solution of a rat small intestine was prepared from the small intestines of three male rats of the Wistar strain and suspended in 3 ml of physiological saline.
A sample of 4-aminoantipyrine (A 4382) was purchased from Sigma Chemical Co., and samples of peroxidase (Grade I) and glucose oxidase (Grade I) were purchased from Boehringer Mannheim Co. A buffer solution (pH 6.2) comprising 20 mM of citric acid and 40 mM of disodium phosphate was used as the diluent in the following experiment.
Each well of a micro-titer plate with 96 wells (a product of Falcon Co.) was filled with 130 μl in all of a mixture which contained 0.2 mg of bovine serum albumin (Sigma, A 7906), 3 units of glucose oxidase, 0.132 unit of peroxidase, 20 μg of 4-aminoantipyrine, 40 μg of phenol, 3 μ mole of sucrose and a test compound. To the well were added 20 μl of 100-fold diluted solution of a brush border membrane enzyme solution of rat small intestine. The mixture was allowed to react at 37° for 20 minutes and the quantity of glucose liberated was monitored by absorbance at 492 nm. […]

The nature of a further data set: Solubility. In kind it is physicochemical.
A further data set has as its target β-glucosidase. Nature of the data set: Inhibitory activity against β-glucosidase (p-nitrophenyl-β-D-glucopyranoside hydrolysis, absorbance at 405 nm). The class given is biochemical. The conditions noted are these: pH 5.6, 37° C., 15 min preincubation, 20 min reaction; enzyme from almonds. An excerpt:
Inhibitory activity of 5-amino-1-(hydroxymethyl)cyclopentane-1,2,3,4-tetraol against β-glucosidase
Samples of β-glucosidase (separated from almonds), p-nitrophenyl-β-D-glucopyranoside, deoxynojirimycin and castanospermine used in this experiment were all purchased from Sigma Chemicals Co.
The test compounds used were 5-amino-1-(hydroxymethyl)cyclopentane-1,2,3,4-tetraol [compound (I)], and deoxynojirimycin or castanospermine, both of which are known compounds having this type of activity.
A mixture of 0.01 unit/ml of β-glucosidase and 100 μl of a buffer solution (pH 5.6) comprising 20 mM of citric acid, 40 mM of disodium phosphate and the compound under test was allowed to stand at 37° C. for 15 minutes. At the end of this time, 50 μl of a buffer solution containing 3 mg/ml of p-nitrophenyl-β-D-glucopyranoside were added to the mixture, which was then allowed to react at 37° C. for 20 minutes. 20 μl of a 1M glycine/sodium hydroxide buffer solution (pH 10.4) were added to the reaction mixture, and the quantity of p-nitrophenol liberated was monitored by absorbance at 405 nm. Table 7 lists the concentrations β-glucosidase by 50% (IC50).

In the next data set the target is T2, silkworm trehalase (Bombyx mori, UniProt P32358).
T2 construct: Ten silkworm larvae of the fifth instar (total weight 44 g) were homogenized; from tissue; host or cells: whole silkworm larvae, fifth instar; acetone precipitate of homogenate supernatant
T2 sequence (P32358 16-579): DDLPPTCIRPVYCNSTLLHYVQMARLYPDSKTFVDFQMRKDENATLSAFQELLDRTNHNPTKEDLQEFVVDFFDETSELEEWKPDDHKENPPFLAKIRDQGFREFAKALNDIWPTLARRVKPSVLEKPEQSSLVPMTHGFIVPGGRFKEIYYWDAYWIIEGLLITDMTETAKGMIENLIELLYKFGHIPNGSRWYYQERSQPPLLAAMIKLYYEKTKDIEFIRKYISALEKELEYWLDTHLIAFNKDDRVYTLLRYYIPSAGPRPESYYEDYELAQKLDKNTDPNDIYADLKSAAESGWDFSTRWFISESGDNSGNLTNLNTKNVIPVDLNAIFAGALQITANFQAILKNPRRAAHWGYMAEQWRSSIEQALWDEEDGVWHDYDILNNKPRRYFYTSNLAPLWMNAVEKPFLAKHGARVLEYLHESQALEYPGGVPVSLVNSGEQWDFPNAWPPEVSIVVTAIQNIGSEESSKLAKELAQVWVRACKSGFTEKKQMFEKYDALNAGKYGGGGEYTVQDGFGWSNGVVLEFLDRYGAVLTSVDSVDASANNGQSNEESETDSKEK
Put plainly: Inhibitory activity against silkworm trehalase (crude enzyme from silkworm larvae, glucose determination). As to conditions: pH 5.6, 37° C., 15 min preincubation, 15 min reaction; substrate trehalose; read-out: concentration needed to inhibit the enzyme activity by 50% (IC50), silkworm trehalase (converted). In kind it is biochemical. As to the method:
Inhibitory activity of trehazolin against silkworm trehalase
Ten silkworm larvae of the fifth instar (total weight 44 g) were homogenized using a Polytrone (trade mark) homogenizer in 120 ml of a buffer solution (pH 5.6) prepared using 20 mM of citric acid and 40 mM of disodium phosphate for 2 minutes, whilst ice-cooling (the same buffer solution was also used hereafter). The homogenized mixture was then centrifuged at a speed of 6,000 rpm for 10 minutes, and the supernatant was separated. 240 ml of acetone were added to 120 ml of the supernatant, whist ice-cooling and stirring, and the resulting mixture was centrifuged at a speed of 9,000 rpm for 20 minutes. The sediment was separated and dissolved in water, and the resulting solution was lyophilized, to give 2.0 g of the crude enzyme.
130 μl of the above buffer solution, 50 μl of a sample solution containing trehazolin at various concentrations and 50 μl of a silkworm enzyme solution prepared as described above and containing 4 mg/ml of the enzyme were placed in a test-tube, and the mixture was shaken on a water bath kept at 37° C. for 15 minutes. […]
The reaction was conducted using glucose C-test Wako (a product of Wako Pure Chemical Industries Ltd.) and 10-fold quantities of the sample solution over that of the standard procedure.

T1 sequence (P23739 1014-1841 limits assumed): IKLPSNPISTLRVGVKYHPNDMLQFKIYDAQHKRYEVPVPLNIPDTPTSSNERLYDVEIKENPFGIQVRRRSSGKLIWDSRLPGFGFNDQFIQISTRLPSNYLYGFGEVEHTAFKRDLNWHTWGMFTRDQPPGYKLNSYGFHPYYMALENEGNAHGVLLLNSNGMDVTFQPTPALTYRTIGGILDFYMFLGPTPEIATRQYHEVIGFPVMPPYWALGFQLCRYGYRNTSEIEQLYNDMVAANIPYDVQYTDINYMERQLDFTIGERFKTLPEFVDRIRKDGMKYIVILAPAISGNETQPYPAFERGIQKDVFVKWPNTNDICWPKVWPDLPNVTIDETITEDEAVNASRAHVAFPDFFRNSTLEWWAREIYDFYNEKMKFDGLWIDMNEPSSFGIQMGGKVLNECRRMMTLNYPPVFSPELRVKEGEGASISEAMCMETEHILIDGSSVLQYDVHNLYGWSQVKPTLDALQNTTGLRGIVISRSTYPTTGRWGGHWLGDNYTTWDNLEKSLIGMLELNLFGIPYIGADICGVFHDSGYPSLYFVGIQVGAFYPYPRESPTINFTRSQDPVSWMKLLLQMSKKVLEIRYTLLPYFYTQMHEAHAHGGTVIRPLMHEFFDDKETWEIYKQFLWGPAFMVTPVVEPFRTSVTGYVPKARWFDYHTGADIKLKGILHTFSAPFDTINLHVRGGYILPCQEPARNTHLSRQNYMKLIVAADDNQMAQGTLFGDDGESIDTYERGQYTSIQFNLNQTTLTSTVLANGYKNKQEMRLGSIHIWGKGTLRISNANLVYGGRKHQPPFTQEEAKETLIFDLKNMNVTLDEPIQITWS
T1 sequence (P23739 1-1013 partner limits assumed): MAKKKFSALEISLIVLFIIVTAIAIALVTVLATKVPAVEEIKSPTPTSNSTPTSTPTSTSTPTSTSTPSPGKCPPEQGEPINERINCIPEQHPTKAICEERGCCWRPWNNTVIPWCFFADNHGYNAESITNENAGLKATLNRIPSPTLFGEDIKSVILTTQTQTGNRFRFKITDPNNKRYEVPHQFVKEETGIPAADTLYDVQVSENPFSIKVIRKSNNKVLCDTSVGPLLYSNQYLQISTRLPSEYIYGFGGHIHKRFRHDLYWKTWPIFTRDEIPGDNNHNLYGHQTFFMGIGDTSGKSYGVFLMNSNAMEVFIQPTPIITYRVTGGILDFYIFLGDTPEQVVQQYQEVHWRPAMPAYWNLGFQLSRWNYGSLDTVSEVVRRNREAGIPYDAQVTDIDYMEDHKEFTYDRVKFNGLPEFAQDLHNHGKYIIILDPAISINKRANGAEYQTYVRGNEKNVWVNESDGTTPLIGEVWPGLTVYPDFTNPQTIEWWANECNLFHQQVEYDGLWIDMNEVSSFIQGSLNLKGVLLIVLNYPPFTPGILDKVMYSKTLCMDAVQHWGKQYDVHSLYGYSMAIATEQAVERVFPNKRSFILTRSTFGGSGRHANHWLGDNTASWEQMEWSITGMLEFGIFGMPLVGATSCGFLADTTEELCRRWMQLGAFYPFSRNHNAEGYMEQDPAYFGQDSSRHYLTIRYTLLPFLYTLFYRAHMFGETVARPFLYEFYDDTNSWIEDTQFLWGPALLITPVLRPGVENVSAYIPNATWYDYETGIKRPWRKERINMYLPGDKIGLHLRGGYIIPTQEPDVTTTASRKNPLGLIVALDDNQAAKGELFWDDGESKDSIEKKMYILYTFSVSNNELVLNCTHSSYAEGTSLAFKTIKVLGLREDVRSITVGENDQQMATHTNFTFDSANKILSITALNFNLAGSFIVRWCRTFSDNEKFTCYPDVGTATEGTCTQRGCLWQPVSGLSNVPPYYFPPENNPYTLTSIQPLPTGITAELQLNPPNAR

As to `NC1=NC2C(O1)C(O)C(O)C2(O)CO` (stereo not drawn) [(II), 2-amino-4-(hydroxymethyl)-3a,5,6,6a-tetrahydro-4H-cyclopent[d]oxazole-4,5,6-triol], the IC50 at rat sucrase was 88.2 µM. In addition, in the data set “Solubility”, the Solubility in acetone entry is reported as “insoluble”, the Solubility in chloroform entry is on record as “insoluble” and the Solubility in water result was “soluble”.

As to `NC1C(O)C(O)C(O)C1(O)CO` (stereo not drawn) [Compound (I), 5-amino-1-(hydroxymethyl)cyclopentane-1,2,3,4-tetraol], the “50% inhibitory concentration of β-glucosidase (IC50)” value (shortened to “50% inhibitory concentration”) on β-glucosidase was 1.0 µg/mL. Besides, in the data set “Solubility”, the Solubility in acetone result is given as “insoluble”, the Solubility in chloroform result was “insoluble” and the Solubility in water entry is “soluble”.

As to `O[C@H]1[C@H](O)[C@@H](O)CN2CC[C@H](O)[C@H]12` [Castanospermine, castanospermine], the “50% inhibitory concentration” value on β-glucosidase is 4.3 µg/mL.

With `OCC1OC(NC2=NC3C(O2)C(O)C(O)C3(O)CO)C(O)C(O)C1O` (stereo not drawn) [trehazolin, reference compound], the IC50 on silkworm trehalase was 0.00546 µM. For the same compound, in the data set “Solubility”, the Solubility in acetone entry is on record as “insoluble”, the Solubility in chloroform result was “insoluble” and the Solubility in water result was “soluble”. Besides, the Solubility in methanol entry in “Solubility” (methanol) is given as “soluble”.

Take `OC[C@H]1NC[C@H](O)[C@@H](O)[C@@H]1O` [Deoxynojirimycin, deoxynojirimycin]: at β-glucosidase, the “50% inhibitory concentration” value turned out to be 15 µg/mL.

For the origin of these results see patent publication US5260447A, “Polyhydroxycyclopentane derivatives, their preparation and their therapeutic use” (Sankyo Company, Limited, priority 1992, dated 1993).
